Here are results for 13 compounds from PubChem BioAssay (NCI).

Among the test systems are CCRF-CEM leukemia; KM12 colon; M14 melanoma; NCI-H460 lung; OVCAR-3 ovarian; RPMI-8226 leukemia; SF-295 CNS; SK-MEL-28 melanoma; CAKI-1 renal.
Holding throughout (experiment): DTP human tumour cell line panel, 48 h

Molecules are shown by their SMILES.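 Results reflect a 48-hour exposure of cells in 96-well plates to compound at five concentrations. Here, GI50 denotes the concentration required for 50% inhibition of growth. TGI denotes the concentration required for complete inhibition of growth.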 Where only a bound is given, the exact number is not on record here.

`Cc1ccc(-c2cc(-c3ccco3)c(C#N)c(=O)[nH]2)cc1`: the TGI with CCRF-CEM leukemia, with KM12 colon, in the assay on M14 melanoma, with NCI-H460 lung, in the assay with OVCAR-3 ovarian and in the assay with RPMI-8226 leukemia was more than 100 µM each time. The TGI with SF-295 CNS and in the assay with SK-MEL-28 melanoma was more than 100 µM in each case.
As for `OC1c2ccccc2C2(O)C1C(c1ccccc1)C(c1ccccc1)C2(O)c1ccccc1` (stereo not given), the TGI (usually the concentration at which net growth stops) is more than 100 µM in the assay with CAKI-1 renal; more than 100 µM with CCRF-CEM leukemia; 25.3 µM in the assay with KM12 colon; 28.3 µM with M14 melanoma; 19.5 µM in the assay with NCI-H460 lung; 26.9 µM in the assay with OVCAR-3 ovarian. For the same compound, the TGI was found to be 65.1 µM with RPMI-8226 leukemia, 25.5 µM in the assay with SF-295 CNS and 25.7 µM with SK-MEL-28 melanoma.
With `O=C(/C=C/c1ccccc1)CC1OC(=O)c2ccccc21` (stereo not given), the TGI with CCRF-CEM leukemia was more than 100 µM; with KM12 colon, more than 100 µM; in the assay with M14 melanoma, more than 100 µM; in the assay on NCI-H460 lung, more than 100 µM; with RPMI-8226 leukemia, 82.5 µM; with SF-295 CNS, more than 100 µM. Moreover, the total growth inhibition concentration (TGI) in the assay on SK-MEL-28 melanoma is more than 100 µM.
Turning to `O=[N+]([O-])c1ccc(S(=O)Cc2ccccc2)c([N+](=O)[O-])c1` (stereo not given), the GI50 – broadly, the concentration giving 50% growth inhibition – in the assay with CAKI-1 renal is 1.85 µM; in the assay with CCRF-CEM leukemia, 0.739 µM; in the assay with KM12 colon it was 15.6 µM; in the assay with M14 melanoma, 1.81 µM; in the assay with NCI-H460 lung, 16.4 µM; in the assay on OVCAR-3 ovarian, 1.84 µM. Besides, the GI50 in the assay with RPMI-8226 leukemia is 1.89 µM; in the assay with SF-295 CNS it was 13.2 µM; in the assay on SK-MEL-28 melanoma, 1.89 µM. The concentration for total growth inhibition (TGI) in the assay with CAKI-1 renal was determined as 3.85 µM; in the assay with CCRF-CEM leukemia, 3 µM; with KM12 colon, 29.4 µM; with M14 melanoma, 4.84 µM; in the assay with NCI-H460 lung, 33.2 µM; in the assay on OVCAR-3 ovarian, 3.24 µM. The TGI was 4.46 µM with RPMI-8226 leukemia, 26.9 µM with SF-295 CNS and 4.13 µM in the assay on SK-MEL-28 melanoma.
Regarding `COC(=O)C1C(O)CC(c2ccccn2)N(Cc2ccccc2)C1c1ccccn1` (stereo not given), the TGI in the assay with CAKI-1 renal, with CCRF-CEM leukemia, in the assay on KM12 colon, with M14 melanoma, in the assay with NCI-H460 lung and with OVCAR-3 ovarian was more than 100 µM in each case. Moreover, the TGI with RPMI-8226 leukemia, in the assay with SF-295 CNS and with SK-MEL-28 melanoma was more than 100 µM each time.
With `O=C([CH-]C(=O)c1ccccc1)c1ccccc1.O=C([CH-]C(=O)c1ccccc1)c1ccccc1.O=C([CH-]C(=O)c1ccccc1)c1ccccc1.[Nd+3].[OH3+]`, the GI50 in the assay on CAKI-1 renal was 5.34 µM; with KM12 colon, 6.02 µM; in the assay on M14 melanoma it was 6.89 µM; in the assay on NCI-H460 lung, 3.41 µM; in the assay with OVCAR-3 ovarian, 3.01 µM; with RPMI-8226 leukemia, 3.47 µM. Further, the GI50 was 2.07 µM in the assay with SF-295 CNS and 7.74 µM in the assay on SK-MEL-28 melanoma. In addition, the TGI was 20.8 µM in the assay with CAKI-1 renal; 37.9 µM in the assay with KM12 colon; 21.2 µM in the assay on M14 melanoma; more than 100 µM in the assay on NCI-H460 lung; 14.8 µM with OVCAR-3 ovarian; 26.4 µM in the assay with RPMI-8226 leukemia. Moreover, the TGI with SF-295 CNS came out at 13.5 µM; with SK-MEL-28 melanoma it was 30.4 µM.
Regarding `COc1ccc(NC(=O)C(=O)Cc2nc3ccc([N+](=O)[O-])cc3[nH]c2=O)c(OC)c1`, the TGI with CAKI-1 renal, in the assay on CCRF-CEM leukemia, in the assay with KM12 colon, in the assay on M14 melanoma, in the assay with NCI-H460 lung and with OVCAR-3 ovarian was more than 100 µM each time. The TGI with SF-295 CNS and with SK-MEL-28 melanoma was more than 100 µM each time.
Regarding `O=C(O)COc1ccc(O)c2c1C(=O)CCCC2=O`, the TGI in the assay with CAKI-1 renal, in the assay on CCRF-CEM leukemia, with KM12 colon, in the assay with M14 melanoma, in the assay with NCI-H460 lung and in the assay with OVCAR-3 ovarian was more than 100 µM in each case. Also, the TGI with RPMI-8226 leukemia, with SF-295 CNS and in the assay with SK-MEL-28 melanoma was more than 100 µM throughout.
With `O=C(Nc1ccc(Cl)cc1Cl)C(=O)C(C(=O)c1ccc2ccccc2c1)C1OC(=O)c2ccccc21` (stereo not given), the TGI with CAKI-1 renal is 83 µM; with KM12 colon, 31.9 µM; in the assay with M14 melanoma, 28 µM; with NCI-H460 lung it was 17.3 µM; in the assay on OVCAR-3 ovarian, 26.1 µM; in the assay with RPMI-8226 leukemia it was more than 100 µM. Moreover, the TGI in the assay on SF-295 CNS stood at 19.7 µM; with SK-MEL-28 melanoma, 15.3 µM.
Take `COc1ccc(-c2cc(=O)c3c(C)cc(C)nc3[nH]2)cc1`: the TGI with CAKI-1 renal was 82.9 µM; in the assay with CCRF-CEM leukemia, 43.2 µM; with KM12 colon, more than 100 µM; in the assay on M14 melanoma, more than 100 µM; in the assay with NCI-H460 lung, more than 100 µM; in the assay on OVCAR-3 ovarian, more than 100 µM. The TGI in the assay on RPMI-8226 leukemia is 54.6 µM; in the assay on SF-295 CNS it was more than 100 µM; in the assay with SK-MEL-28 melanoma, more than 100 µM. The GI50 in the assay with NCI-H460 lung was 40.9 µM; in the assay with OVCAR-3 ovarian, 32.7 µM; in the assay with SF-295 CNS, 42.5 µM.
Take `O=C(c1ccc(Cl)cc1)c1ccc(OCCCCCCCCCCOc2ccc(C(=O)c3ccc(Cl)cc3)cc2)cc1`: the TGI with CAKI-1 renal, in the assay with CCRF-CEM leukemia, with KM12 colon, in the assay on NCI-H460 lung, in the assay on OVCAR-3 ovarian and with RPMI-8226 leukemia was more than 100 µM each time. Also, the TGI in the assay on SF-295 CNS and in the assay with SK-MEL-28 melanoma was more than 100 µM throughout.
For the compound `CCN(CC)CCNc1ccc([N+](=O)[O-])c2sc3ccccc3c(=O)c12`, the GI50 in the assay on CCRF-CEM leukemia was 0.732 µM; in the assay with KM12 colon it was 1.19 µM; with M14 melanoma, 1.36 µM; in the assay on NCI-H460 lung it was 0.443 µM; with OVCAR-3 ovarian it was 1.32 µM; with RPMI-8226 leukemia, 0.915 µM. The GI50 in the assay on SK-MEL-28 melanoma was 1.77 µM. Further, the TGI is 3.26 µM in the assay on CCRF-CEM leukemia; 2.55 µM with KM12 colon; 2.85 µM with M14 melanoma; 1.96 µM with NCI-H460 lung; 2.69 µM in the assay with OVCAR-3 ovarian; 2.84 µM in the assay on RPMI-8226 leukemia. Moreover, the TGI in the assay on SK-MEL-28 melanoma amounted to 3.3 µM.
With `CCCNCCCC(NC(C)=O)C(=O)NCc1ccccc1` (stereo not given), the TGI in the assay on CAKI-1 renal, in the assay on CCRF-CEM leukemia, with KM12 colon, in the assay with M14 melanoma, in the assay with NCI-H460 lung and in the assay with OVCAR-3 ovarian was more than 100 µM in each case. Moreover, the TGI in the assay on RPMI-8226 leukemia, in the assay with SF-295 CNS and in the assay on SK-MEL-28 melanoma was more than 100 µM each time.
